26 compounds from patent US9481677B2, “Biaryl ether sulfonamides and their use as therapeutic agents” (XENON PHARMACEUTICALS INC., priority 2011, dated 2016) can be followed below.

The structures appear in SMILES notation.

The target of the assay is Nav1.7 (Homo sapiens (Human), UniProt Q15858). As to the kind of experiment: Patch voltage clamp electrophysiology, block of inactivated-state Nav1.7 in HEK-293 cells. As to conditions: affinity for the inactivated state; HEK-293 cells with β1 subunit; held at -60 mV; read-out: NaV1.7 (IC50 class). It is filed as cell-based. The protocol:
Patch voltage clamp electrophysiology allows for the direct measurement and quantification of block of voltage-gated sodium channels (Nav's), and allows the determination of the time- and voltage-dependence of block which has been interpreted as differential binding to the resting, open, and inactivated states of the sodium channel (Hille, B., Journal of General Physiology (1977), 69: 497-515).
The following patch voltage clamp electrophysiology studies were performed on representative compounds of the invention using human embryonic kidney cells (HEK), permanently transfected with an expression vector containing the full-length cDNA coding for the desired human sodium channel α-subunit, grown in culture media containing 10% FBS, 1% PSG, and 0.5 mg/mL G418 at 37° C. with 5% CO2. […] Nav1.7 and Nav1.5 cDNAs (NM_002977 and AC137587; SCN5A, respectively) were stably expressed in HEK-293 cells. The β1 subunit was coexpressed only in the Nav1.7 cell line.
Sodium currents were measured using the patch clamp technique in the whole-cell configuration using either a PatchXpress automated voltage clamp or manually using an Axopatch 200B (Axon Instruments) or Model 2400 (A-M systems) amplifier. […] The pipette was filled with a solution comprised of: 5 mM NaCl, 10 mM CsCl, 120 mM CsF, 0.1 mM CaCl2, 2 mM MgCl2, 10 mM HEPES, 10 mM EGTA; and adjusted to pH 7.2 with CsOH. The external solution had the following composition: 140 mM NaCl, 5 mM KCl, 2 mM CaCl2, 1 mM MgCl2, 10 mM HEPES; and adjusted to pH 7.4 with NaOH. In some studies, the external sodium was reduced by equimolar replacement with choline. Osmolarity in the CsF internal and NaCl external solutions was adjusted to 300 mOsm/kg and 310 mOsm/kg with glucose, respectively. All recordings were performed at ambient temperature in a bath chamber with a volume of 150 μL. Control sodium currents were measured in 0.5% DMSO. Controls and representative compounds of the invention were applied to the recording chamber through a 4-pinch or 8-pinch valve bath perfusion system manufactured by ALA Scientific Instruments.
Currents were recorded at 40 kHz sampling frequency, filtered at […], and stored using a Digidata-1322A analogue/digital interface with the pClamp software (Axon Instruments). Series resistance compensation was applied (60-80%). […] All statistics in this study are given as mean±SD.
The membrane potential was maintained at a voltage where inactivation of the channel is complete (which was −60 mV for both Nav1.7 and Nav1.5). The voltage is then stepped back to a very negative (Vhold=−150 mV) voltage for 20 ms and then a test pulse is applied to quantify the compound block. […] The percent decrease in sodium current following wash-on of compound was taken as the percent block of sodium channels.
The Example numbers provided in Table 1 and Table 2 correspond to the Examples herein.

One may read the IC50 as the concentration that gives 50% inhibition.

Sequence of Nav1.7 (Q15858 other isoform, or with tags, fused parts or gaps): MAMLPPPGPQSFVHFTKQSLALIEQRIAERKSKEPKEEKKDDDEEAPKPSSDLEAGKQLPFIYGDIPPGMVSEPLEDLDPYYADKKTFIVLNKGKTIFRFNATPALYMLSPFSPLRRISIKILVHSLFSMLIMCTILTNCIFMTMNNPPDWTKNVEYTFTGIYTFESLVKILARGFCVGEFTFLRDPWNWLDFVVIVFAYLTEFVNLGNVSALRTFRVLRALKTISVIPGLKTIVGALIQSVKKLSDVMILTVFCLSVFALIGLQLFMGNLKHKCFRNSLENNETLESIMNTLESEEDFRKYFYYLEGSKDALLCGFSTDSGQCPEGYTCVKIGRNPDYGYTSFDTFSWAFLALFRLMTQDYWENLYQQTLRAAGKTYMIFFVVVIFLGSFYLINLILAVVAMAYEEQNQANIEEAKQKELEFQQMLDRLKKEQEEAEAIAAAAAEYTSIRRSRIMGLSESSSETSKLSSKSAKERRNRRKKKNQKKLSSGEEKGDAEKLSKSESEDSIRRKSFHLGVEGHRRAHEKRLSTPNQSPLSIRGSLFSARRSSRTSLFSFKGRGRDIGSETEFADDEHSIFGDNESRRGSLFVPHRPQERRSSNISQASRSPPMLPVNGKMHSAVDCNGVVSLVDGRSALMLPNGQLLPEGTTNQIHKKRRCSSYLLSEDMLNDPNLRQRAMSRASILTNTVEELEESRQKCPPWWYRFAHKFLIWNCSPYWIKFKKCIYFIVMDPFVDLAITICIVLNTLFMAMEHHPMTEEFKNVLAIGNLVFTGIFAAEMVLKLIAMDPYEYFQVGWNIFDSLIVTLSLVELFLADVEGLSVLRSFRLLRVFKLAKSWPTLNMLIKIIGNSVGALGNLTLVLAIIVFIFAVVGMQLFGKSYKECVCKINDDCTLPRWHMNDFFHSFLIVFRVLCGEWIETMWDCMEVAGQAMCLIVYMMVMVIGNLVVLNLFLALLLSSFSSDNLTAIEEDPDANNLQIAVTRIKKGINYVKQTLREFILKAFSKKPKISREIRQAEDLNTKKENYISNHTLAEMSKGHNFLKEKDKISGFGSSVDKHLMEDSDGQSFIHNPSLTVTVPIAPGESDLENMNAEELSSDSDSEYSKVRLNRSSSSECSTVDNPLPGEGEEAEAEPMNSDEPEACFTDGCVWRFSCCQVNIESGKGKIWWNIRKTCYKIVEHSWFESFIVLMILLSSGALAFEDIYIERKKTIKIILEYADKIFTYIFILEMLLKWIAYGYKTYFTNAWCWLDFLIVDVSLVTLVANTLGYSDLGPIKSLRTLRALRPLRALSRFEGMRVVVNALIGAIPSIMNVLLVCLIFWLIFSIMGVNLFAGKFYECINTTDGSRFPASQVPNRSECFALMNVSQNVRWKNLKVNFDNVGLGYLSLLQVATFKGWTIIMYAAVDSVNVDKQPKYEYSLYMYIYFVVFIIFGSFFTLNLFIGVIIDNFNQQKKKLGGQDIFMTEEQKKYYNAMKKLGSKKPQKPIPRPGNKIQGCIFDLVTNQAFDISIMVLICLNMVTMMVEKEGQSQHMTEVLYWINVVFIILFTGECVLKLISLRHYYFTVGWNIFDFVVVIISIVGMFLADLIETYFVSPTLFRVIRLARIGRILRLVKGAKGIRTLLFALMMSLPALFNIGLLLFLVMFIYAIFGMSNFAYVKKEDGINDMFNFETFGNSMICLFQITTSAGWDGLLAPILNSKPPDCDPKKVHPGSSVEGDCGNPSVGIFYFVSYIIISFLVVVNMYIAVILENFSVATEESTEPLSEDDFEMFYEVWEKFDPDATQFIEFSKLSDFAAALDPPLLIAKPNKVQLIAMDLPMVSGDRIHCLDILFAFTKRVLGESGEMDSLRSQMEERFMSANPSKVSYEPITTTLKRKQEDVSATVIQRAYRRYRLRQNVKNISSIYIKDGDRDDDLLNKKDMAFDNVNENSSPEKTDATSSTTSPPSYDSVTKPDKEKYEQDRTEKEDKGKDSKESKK
Sequence of Nav1.7 (Q07699 19-218 partner): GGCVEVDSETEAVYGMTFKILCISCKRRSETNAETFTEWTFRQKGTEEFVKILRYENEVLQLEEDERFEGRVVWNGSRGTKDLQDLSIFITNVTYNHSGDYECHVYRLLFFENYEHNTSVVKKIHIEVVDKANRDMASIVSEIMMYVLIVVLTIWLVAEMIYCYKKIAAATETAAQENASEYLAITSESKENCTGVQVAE

In the case of `Nc1noc2ccc(-c3ccccc3Oc3cc(F)c(S(=O)(=O)Nc4ncns4)cc3F)cc12` [Example 58, 4-(2-(3-aminobenzo[d]isoxazol-5-yl)phenoxy)-2,5-difluoro-N-(1,2,4-thiadiazol-5-yl)benzenesulfonamide], the IC50 is at most 100 nM. The same measure for `Nc1noc2ccc(-c3cc(Cl)ccc3Oc3cc(F)c(S(=O)(=O)Nc4ncns4)c(F)c3)cc12` [Example 64, 4-(2-(3-aminobenzo[d]isoxazol-5-yl)-4-chlorophenoxy)-2,6-difluoro-N-(1,2,4-thiadiazol-5-yl)benzenesulfonamide]: at most 100 nM; for `Nc1n[nH]c2ccc(-c3cc(Cl)ccc3Oc3cc(F)c(S(=O)(=O)Nc4ncns4)cc3F)cc12` [Example 45, 4-(2-(3-amino-1H-indazol-5-yl)-4-chlorophenoxy)-2,5-difluoro-N-(1,2,4-thiadiazol-5-yl)benzenesulfonamide]: at most 100 nM. To `Nc1noc2ccc(-c3cc(F)ccc3Oc3cc(F)c(S(=O)(=O)Nc4ncns4)cc3F)cc12` [Example 80, 4-(2-(3-aminobenzo[d]isoxazol-5-yl)-4-fluorophenoxy)-2,5-difluoro-N-(1,2,4-thiadiazol-5-yl)benzenesulfonamide] belongs at most 100 nM; to `O=S(=O)(Nc1ncns1)c1cc(F)c(Oc2ccc(Cl)cc2-c2cnc3n2CCNC3)cc1F` [Example 32, 4-(4-chloro-2-(5,6,7,8-tetrahydroimidazo[1,2-a]pyrazin-3-yl)phenoxy)-2,5-difluoro-N-(1,2,4-thiadiazol-5-yl)benzenesulfonamide], 100 to 1000 nM.

`CN(C)c1noc2ccc(-c3cc(Cl)ccc3Oc3cc(F)c(S(=O)(=O)Nc4ncns4)cc3F)cc12` [Example 98, 4-(4-chloro-2-(3-(dimethylamino)benzo[d]isoxazol-5-yl)phenoxy)-2,5-difluoro-N-(1,2,4-thiadiazol-5-yl)benzenesulfonamide]: the IC50 was at most 100 nM. As to `O=S(=O)(Nc1ncns1)c1cc(F)c(Oc2ccc(Cl)cc2-c2cccc3nccn23)cc1F` [Example 30, 4-(4-chloro-2-(imidazo[1,2-a]pyridin-5-yl)phenoxy)-2,5-difluoro-N-(1,2,4-thiadiazol-5-yl)benzenesulfonamide], the IC50 was at most 100 nM. As to `O=c1[nH]c2cc(-c3cc(Cl)ccc3Oc3cc(F)c(S(=O)(=O)Nc4ncns4)cc3F)ccc2o1` [Example 52, 4-(4-chloro-2-(2-oxo-2,3-dihydrobenzo[d]oxazol-5-yl)phenoxy)-2,5-difluoro-N-(1,2,4-thiadiazol-5-yl)benzenesulfonamide], the IC50 was at most 100 nM. To `Nc1noc2ccc(-c3cc(Cl)ccc3Oc3cc(F)c(S(=O)(=O)Nc4ncccn4)cc3F)cc12` [Example 63, 4-(2-(3-aminobenzo[d]isoxazol-5-yl)-4-chlorophenoxy)-2,5-difluoro-N-(pyrimidin-2-yl)benzenesulfonamide] belongs at most 100 nM; to `CNc1noc2ccc(-c3cc(Cl)ccc3Oc3cc(F)c(S(=O)(=O)Nc4ncns4)cc3F)cc12` [Example 69, 4-(4-chloro-2-(3-(methylamino)benzo[d]isoxazol-5-yl)phenoxy)-2,5-difluoro-N-(1,2,4-thiadiazol-5-yl)benzenesulfonamide], at most 100 nM. Turning to `O=c1[nH]c2ccc(-c3cc(Cl)ccc3Oc3cc(F)c(S(=O)(=O)Nc4ncns4)cc3F)cc2[nH]1` [Example 48, 4-(4-chloro-2-(2-oxo-2,3-dihydro-1H-benzo[d]imidazol-5-yl)phenoxy)-2,5-difluoro-N-(1,2,4-thiadiazol-5-yl)benzenesulfonamide], the IC50 is at most 100 nM.

Take `O=S(=O)(Nc1ncns1)c1cc(F)c(Oc2ccc(Cl)cc2-c2ccc3[nH]c(C(F)(F)F)nc3c2)cc1F` [Example 54, 4-(4-chloro-2-(2-(trifluoromethyl)-1H-benzo[d]imidazol-5-yl)phenoxy)-2,5-difluoro-N-(1,2,4-thiadiazol-5-yl)benzenesulfonamide]: the IC50 was at most 100 nM. For the compound `O=c1[nH]c2cc(-c3cc(Cl)ccc3Oc3ccc(S(=O)(=O)Nc4ncccn4)cc3F)ccc2o1` [Example 79, 4-(4-chloro-2-(2-oxo-2,3-dihydrobenzo[d]oxazol-5-yl)phenoxy)-3-fluoro-N-(pyrimidin-2-yl)benzenesulfonamide], the IC50 was at most 100 nM. The same measure for `O=S(=O)(Nc1ncns1)c1cc(F)c(Oc2ccc(Cl)cc2-c2ccnc3nccn23)cc1F` [Example 31, 4-(4-chloro-2-(imidazo[1,2-a]pyrimidin-5-yl)phenoxy)-2,5-difluoro-N-(1,2,4-thiadiazol-5-yl)benzenesulfonamide]: at most 100 nM; for `Nc1cnc2ccc(-c3cc(Cl)ccc3Oc3cc(F)c(S(=O)(=O)Nc4ncns4)cc3F)cn12` [Example 42, 4-(2-(3-aminoimidazo[1,2-a]pyridin-6-yl)-4-chlorophenoxy)-2,5-difluoro-N-(1,2,4-thiadiazol-5-yl)benzenesulfonamide]: at most 100 nM; for `O=S(=O)(Nc1ncns1)c1cc(F)c(Oc2ccc(Cl)cc2-c2ncc3cnccn23)cc1F` [Example 36, 4-(4-chloro-2-(imidazo[1,5-a]pyrazin-3-yl)phenoxy)-2,5-difluoro-N-(1,2,4-thiadiazol-5-yl)benzenesulfonamide]: 1000 to 10000 nM. In the case of `Nc1nc2ccc(-c3cc(Cl)ccc3Oc3cc(F)c(S(=O)(=O)Nc4ncns4)cc3F)cc2o1` [Example 57, 4-(2-(2-aminobenzo[d]oxazol-6-yl)-4-chlorophenoxy)-2,5-difluoro-N-(1,2,4-thiadiazol-5-yl)benzenesulfonamide], the IC50 is at most 100 nM. The same measure for `Cc1ccc(Oc2cc(F)c(S(=O)(=O)Nc3ncns3)cc2F)c(-c2ccc3oc(=O)[nH]c3c2)c1` [Example 82, 2,5-difluoro-4-(4-methyl-2-(2-oxo-2,3-dihydrobenzo[d]oxazol-5-yl)phenoxy)-N-(1,2,4-thiadiazol-5-yl)benzenesulfonamide]: at most 100 nM; for `O=S(=O)(Nc1ncns1)c1cc(F)c(Oc2ccc(Cl)cc2-c2ccc3ocnc3c2)cc1F` [Example 51, 4-(2-(benzo[d]oxazol-5-yl)-4-chlorophenoxy)-2,5-difluoro-N-(1,2,4-thiadiazol-5-yl)benzenesulfonamide]: at most 100 nM; for `Nc1noc2ccc(-c3cc(Cl)ccc3Oc3cc(F)c(S(=O)(=O)Nc4cscn4)cc3F)cc12` [Example 49, 4-(2-(3-aminobenzo[d]isoxazol-5-yl)-4-chlorophenoxy)-2,5-difluoro-N-(thiazol-4-yl)benzenesulfonamide]: at most 100 nM.

On to `O=S(=O)(Nc1ncns1)c1cc(F)c(Oc2ccc(Cl)cc2-n2cnc3cncnc32)cc1F` [Example 40, 4-(4-chloro-2-(9H-purin-9-yl)phenoxy)-2,5-difluoro-N-(1,2,4-thiadiazol-5-yl)-benzenesulfonamide], for which the IC50 lay in the range of 1000 to 10000 nM. With `Nc1nc2cc(-c3cc(Cl)ccc3Oc3cc(F)c(S(=O)(=O)Nc4ncns4)cc3F)ccc2[nH]1` [Example 38, 4-(2-(2-amino-1H-benzo[d]imidazol-5-yl)-4-chlorophenoxy)-2,5-difluoro-N-(1,2,4-thiadiazol-5-yl)benzenesulfonamide], the IC50 was at most 100 nM.

Take `O=S(=O)(Nc1ncns1)c1cc(F)c(Oc2ccc(Cl)cc2-c2ccc3[nH]cnc3c2)cc1F` [Example 73, 4-(2-(1H-benzo[d]imidazol-5-yl)-4-chlorophenoxy)-2,5-difluoro-N-(1,2,4-thiadiazol-5-yl)benzenesulfonamide]: the IC50 was at most 100 nM. The same measure for `O=S(=O)(Nc1ncns1)c1cc(F)c(Oc2ccc(Cl)cc2-c2ccc3nccnc3c2)cc1F` [Example 59, 4-(4-chloro-2-(quinoxalin-6-yl)phenoxy)-2,5-difluoro-N-(1,2,4-thiadiazol-5-yl)benzenesulfonamide]: at most 100 nM; for `O=c1[nH]cc(-c2cc(Cl)ccc2Oc2cc(F)c(S(=O)(=O)Nc3ncns3)cc2F)n2cncc12` [Example 35, 4-(4-chloro-2-(8-oxo-7,8-dihydroimidazo[1,5-a]pyrazin-5-yl)phenoxy)-2,5-difluoro-N-(1,2,4-thiadiazol-5-yl)benzenesulfonamide]: 100 to 1000 nM. To `Nc1noc2ccc(-c3cc(Cl)ccc3Oc3ccc(S(=O)(=O)Nc4ncns4)c(F)c3F)cc12` [Example 65, 4-(2-(3-aminobenzo[d]isoxazol-5-yl)-4-chlorophenoxy)-2,3-difluoro-N-(1,2,4-thiadiazol-5-yl)benzenesulfonamide] belongs at most 100 nM.
